Experimental data reported in US20230084927A1, “GLUCOSE UPTAKE INHIBITORS AND USES THEREOF” (METABOMED LTD., priority 2019, published 2023).
Where two headings read alike, the source gives them in different places.

Columns and labels:
[1] = system: ACHN SDHB −/− (SDHB CRISPRed out); assay: Cell viability in SDH-deficient/proficient isogenic pairs; assay type: cell-based; conditions: Homo sapiens, cancer cells, 72 hours
Description: (§1) The cells were grown in DMEM F12 supplemented with 1 mM Glutamine+3% FBS were treated with different concentrations of the indicated compounds. Cell viability was determined 72 hours later by CellTiter Glue reagent (Promega), the luminescence was measured with ClarioStar reader (BMG) and the EC50s were calculated by Prism. Murine SDHB-WT/KO, HRAS transformed isogenic pair (FIG. 12A); UOK269, Human Tumor-derived SDHB-deficient RCC in their WT counterpart with re-expression of SDHB (FIG. 12B); and ACHN, RCC cells, and their SDHB-KO (SDHB CRISPRed out) isogenic cells (FIG. 12C).

[2] = system: ACHN WT, RCC cells; assay: as above; assay type: cell-based; conditions: Homo sapiens, cancer cells, 72 hours
Description: as §1

[3] = system: 2-DeoxyGlucose phosphorylation in murine SDH-WT cells; assay: 2 DG phosphorylation assay; assay type: cell-based; conditions: Mus musculus, 0.25 h, 15 min, LC-MS
Description: IC50 of compound 145 and GluT1 inhibitor […] in a 2 DG phosphorylation assay was done using murine SDH-WT cells. The cells were treated for 15 min with the indicated compound at different concentrations in the presence of 2 DG. 2 DG phosphorylation was determined by LC-MS analysis and the inhibition IC50 was determined by Prism software.

[4] = system: SDH-KO-HRAS cells (SDHB-deficient); assay: Cellular / differential toxicity assay (CellTiter-Glo, 3 days); assay type: cell-based, murine; conditions: for EC50: Mus musculus, 72 h; for differential toxicity, SDH-KO cells compared to SDH-WT cells: viability EC50s, Example 6
In short: (§2)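 Isogenic SDHB-deficient (HRAS-transformed SDH-KO) and SDH-WT cells grown in DMEM-F12 with 1 mM glutamine and 3% FBS, plated with compound (10-point dilution from 10 uM to 0.0065 uM or lower) for 3 days at 37 °C, 5% CO2. Viability by CellTiter-Glo luminescence; EC50 calculated.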

[5] = system: SDH-WT cells; assay: as above; assay type: cell-based, murine; conditions: Mus musculus, 72 h
In short: as §2

[6] = system: UOK269-WT (re-expression of SDHB); assay: Cell viability in SDH-deficient/proficient isogenic pairs; assay type: cell-based, Human; conditions: Homo sapiens, tumor-derived, 72 hours
Description: as §1

[7] = system: UOK269 (SDHB-def.) RCC; assay: as above; assay type: cell-based, Human; conditions: Homo sapiens, tumor-derived, 72 hours
Description: as §1

[8] = toxicity, SDH-KO cells, 3 days, CellTiter-Glo, read-out: EC50 (uM) SDH-KO-HTAS-C17
[9] = toxicity, SDH-WT cells, 3 days, CellTiter-Glo, read-out: EC50 (uM) SDH-WT

Compound | EC50 [4, 8] | EC50 [5, 9] | also measured
Cc1c(NC(=O)c2cc(C(N)=O)nc3cc(F)ccc23)c(C(F)(F)F)nn1Cc1ccc(C#N)cc1 [BAY-876, reference compound] |  |  | EC50 [1]: 256 nM; EC50 [2]: 24200 nM; IC50 [3]: 21.6 nM; EC50 ([4]; Murine SDH-KO, transformed, 72 hours, Example 8, read-out: EC50): 0.00095 µM; EC50 ([5]; Murine SDH-WT, transformed, 72 hours, Example 8, read-out: EC50): 0.134 µM; EC50 [6]: 5300 nM; EC50 [7]: 15 nM
Cc1nc(NCCc2ccc3[nH]cnc3c2)c2sc3ncccc3c2n1 [Compound 309, N-(2-(1H-Benzo[d]imidazol-5-yl)ethyl)-2-methylpyrido[3′,2′:4,5]thieno[3,2-d]pyrimidin-4-amine] | 3 to 10 µM | > 10 µM | 
c1cnc2sc3c(NCCc4ccc5[nH]cnc5c4)nc(C4CCCCC4)nc3c2c1 [Compound 310, N-(2-(1H-Benzo[d]imidazol-5-yl)ethyl)-2-cyclohexylpyrido[3′,2′:4,5]thieno[3,2-d]pyrimidin-4-amine] | > 10 µM | > 10 µM | 
CC(C)c1nc(NCCc2ccc3[nH]cnc3c2)c2sc3nc4c(cc3c2n1)COC(C)(C)C4 [Compound 311] | 1 to 3 µM | > 10 µM | 
CC(C)c1nc(NCCc2ccc3[nH]cnc3c2)c2sc3ncccc3c2n1 [Compound 312, N-(2-(1H-Benzo[d]imidazol-5-yl)ethyl)-2-isopropylpyrido[3′,2′:4,5]thieno[3,2-d]pyrimidin-4-amine] | 3 to 10 µM | 3 to 10 µM | 
Cc1nc(NCCc2ccc3[nH]cnc3c2)c2sc3nc4c(cc3c2n1)COC(C)(C)C4 [Compound 313] | 3 to 10 µM | 3 to 10 µM | 
CCCc1nc(NCCc2ccc3[nH]cnc3c2)c2sc3nc4c(cc3c2n1)COC(C)(C)C4 [Compound 314] | 3 to 10 µM | 3 to 10 µM | 
CC1(C)Cc2nc3sc4c(NCCc5ccc6[nH]cnc6c5)nc(-c5ccccc5)nc4c3cc2CO1 [Compound 315] | 1 to 3 µM | 3 to 10 µM | 
c1cnc2sc3c(NCCc4ccc5[nH]cnc5c4)nc(C4CCCC4)nc3c2c1 [Compound 316, N-(2-(1H-Benzo[d]imidazol-5-yl)ethyl)-2-cyclopentylpyrido[3′,2′:4,5]thieno[3,2-d]pyrimidin-4-amine] | 3 to 10 µM | 3 to 10 µM | 
COCCOCCOCCOCCNC(=O)c1c2c(nc3sc4c(NCCc5ccc6[nH]cnc6c5)ncnc4c13)CC(C)(C)OC2 [Compound 317, 4-((2-(1H-Benzo[d]imidazol-5-yl)ethyl)amino)-8,8-dimethyl-N-(2,5,8,11-tetraoxatridecan-13-yl)-7,10-dihydro-8H-pyrano[3″,4″:5′,6′]pyrido[3′,2′:4,5]thieno[3,2-d]pyrimidine-11-carboxamide] | 3 to 10 µM | 3 to 10 µM | 
CC1(C)Cc2nc3sc4c(NCCc5ccc6[nH]cnc6c5)ncnc4c3c(-c3cncs3)c2CO1 [Compound 318] | < 1 µM | < 1 µM | 
CSCc1c2c(nc3sc4c(NCCc5ccc6[nH]cnc6c5)ncnc4c13)CC(C)(C)OC2 [Compound 319, N-(2-(1H-Benzo[d]imidazol-5-yl)ethyl)-8,8-dimethyl-11-((methylthio)methyl)-7,10-dihydro-8H-pyrano[3″,4″:5′,6′]pyrido[3′,2′:4,5]thieno[3,2-d]pyrimidin-4-amine] | < 1 µM | 1 to 3 µM | 
COCCOCCOCCNCc1c2c(nc3sc4c(NCCc5ccc6[nH]cnc6c5)ncnc4c13)CC(C)(C)OC2 [Compound 320, N-(2-(1H-Benzo[d]imidazol-5-yl)ethyl)-11-(5,8,11-trioxa-2-azadodecyl)-8,8-dimethyl-7,10-dihydro-8H-pyrano[3″,4″:5′,6′]pyrido[3′,2′:4,5]thieno[3,2-d]pyrimidin-4-amine] | 3 to 10 µM | 3 to 10 µM | 
COCCOCCOCCOCCNCc1c2c(nc3sc4c(NCCc5ccc6[nH]cnc6c5)ncnc4c13)CC(C)(C)OC2 [Compound 321, N-(2-(1H-Benzo[d]imidazol-5-yl)ethyl)-8,8-dimethyl-11-(5,8,11,14-tetraoxa-2-azapentadecyl)-7,10-dihydro-8H-pyrano[3″,4″:5′,6′]pyrido[3′,2′:4,5]thieno[3,2-d]pyrimidin-4-amine] | 1 to 3 µM | 3 to 10 µM | 
CC1(C)Cc2nc3sc4c(NCCc5ccc6[nH]cnc6c5)ncnc4c3c(COc3ccccc3)c2CO1 [Compound 322, N-(2-(1H-Benzo[d]imidazol-5-yl)ethyl)-8,8-dimethyl-11-(phenoxymethyl)-7,10-dihydro-8H-pyrano[3″,4″:5′,6′]pyrido[3′,2′:4,5]thieno[3,2-d]pyrimidin-4-amine] | < 1 µM | < 1 µM | 
CC(C)COCc1c2c(nc3sc4c(NCCc5ccc6[nH]cnc6c5)ncnc4c13)CC(C)(C)OC2 [Compound 323, N-(2-(1H-Benzo[d]imidazol-5-yl)ethyl)-11-(isobutoxymethyl)-8,8-dimethyl-7,10-dihydro-8H-pyrano[3″,4″:5′,6′]pyrido[3′,2′:4,5]thieno[3,2-d]pyrimidin-4-amine] | < 1 µM | < 1 µM | 
CC1(C)Cc2nc3sc4c(NCCc5ccc6[nH]cnc6c5)ncnc4c3c(COC3CCOCC3)c2CO1 [Compound 324, N-(2-(1H-Benzo[d]imidazol-5-yl)ethyl)-8,8-dimethyl-11-(((tetrahydro-2H-pyran-4-yl)oxy)methyl)-7,10-dihydro-8H-pyrano[3″,4″:5′,6′]pyrido[3′,2′:4,5]thieno[3,2-d]pyrimidin-4-amine] | < 1 µM | < 1 µM | 
CC1(C)Cc2nc3sc4c(NCCc5ccc6[nH]cnc6c5)ncnc4c3c(COC3CCCCC3)c2CO1 [Compound 327, N-(2-(1H-Benzo[d]imidazol-5-yl)ethyl)-11-((cyclohexyloxy)methyl)-8,8-dimethyl-7,10-dihydro-8H-pyrano[3″,4″:5′,6′]pyrido[3′,2′:4,5]thieno[3,2-d]pyrimidin-4-amine] | < 1 µM | < 1 µM | 
CN1CCC(OCc2c3c(nc4sc5c(NCCc6ccc7[nH]cnc7c6)ncnc5c24)CC(C)(C)OC3)CC1 [Compound 328, N-(2-(1H-Benzo[d]imidazol-5-yl)ethyl)-8,8-dimethyl-11-(((1-methylpiperidin-4-yl)oxy)methyl)-7,10-dihydro-8H-pyrano[3″,4″:5′,6′]pyrido[3′,2′:4,5]thieno[3,2-d]pyrimidin-4-amine] | 3 to 10 µM | 3 to 10 µM | 
CC1(C)Cc2nc3oc4c(NCCc5ccc6[nH]cnc6c5)ncnc4c3cc2CO1 [Compound 329] | < 1 µM | < 1 µM | 
COCCOCCOCCOCCN(C)Cc1c2c(nc3sc4c(NCCc5ccc6[nH]cnc6c5)ncnc4c13)CC(C)(C)OC2 [Compound 330, N-(2-(1H-Benzo[d]imidazol-5-yl)ethyl)-8,8-dimethyl-11-(2-methyl-5,8,11,14-tetraoxa-2-azapentadecyl)-7,10-dihydro-8H-pyrano[3″,4″:5′,6′]pyrido[3′,2′:4,5]thieno[3,2-d]pyrimidin-4-amine] | < 1 µM | 3 to 10 µM | differential toxicity, SDH-KO cells compared to SDH-WT cells ([4]; 72 hours): > 56
COCCOCCOCCN(C)Cc1c2c(nc3sc4c(NCCc5ccc6[nH]cnc6c5)ncnc4c13)CC(C)(C)OC2 [Compound 331, N-(2-(1H-Benzo[d]imidazol-5-yl)ethyl)-8,8-dimethyl-11-(2-methyl-5,8,11-trioxa-2-azadodecyl)-7,10-dihydro-8H-pyrano[3″,4″:5′,6′]pyrido[3′,2′:4,5]thieno[3,2-d]pyrimidin-4-amine] | < 1 µM | 3 to 10 µM | differential toxicity, SDH-KO cells compared to SDH-WT cells ([4]; 72 hours): > 42
CC1(C)Cc2nc3sc4c(NCCc5ccc6[nH]cnc6c5)ncnc4c3c(COC3CCCC3)c2CO1 [Compound 333] | < 1 µM | 1 to 3 µM | 
CN(C)Cc1c2c(nc3sc4c(NCCc5ccc6[nH]cnc6c5)ncnc4c13)CC(C)(C)OC2 [Compound 334] | < 1 µM | 3 to 10 µM | 
COCCCCc1c2c(nc3sc4c(NCCc5ccc6[nH]cnc6c5)ncnc4c13)CC(C)(C)OC2 [Compound 335] | < 1 µM | 3 to 10 µM | 
